Two compounds from ChEMBL document CHEMBL4138232, “O2-(2,4-dinitrophenyl)diazeniumdiolates derivatives: Design, synthesis, cytotoxic evaluation and reversing MDR in MCF-7/ADR cells” (Eur J Med Chem, 2018) can be followed below.

T1 sequence (P09211 whole entry): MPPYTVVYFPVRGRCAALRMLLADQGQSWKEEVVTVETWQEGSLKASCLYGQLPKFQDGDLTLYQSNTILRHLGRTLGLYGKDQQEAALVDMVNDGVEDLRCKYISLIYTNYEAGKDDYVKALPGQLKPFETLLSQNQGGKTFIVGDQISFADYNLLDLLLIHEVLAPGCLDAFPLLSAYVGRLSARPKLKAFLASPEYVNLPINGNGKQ

One data set has as its system HCT-116. Nature of the data set: Cytotoxicity against human HCT116 cells overexpressing GST-Pi assessed as inhibition of cell viability at 10 uM after 48 hrs by MTT assay relative to control. The class given is functional. The note with it: HCT-116, 48 h. In general terms: Tetrazolium dyes change colour on reduction, which living cells bring about.
As to `COc1ccc(C2CC(c3cccc(Oc4cc(O/N=[N+](\[O-])N5CCOCC5)c([N+](=O)[O-])cc4[N+](=O)[O-])c3)=NN2C(C)=O)cc1OC` (centres undefined), the inhibition at 10 µM is 81.2%.
Still for that read-out and setting: then `CCCCOc1ccc(C2CC(c3cccc(Oc4cc(O/N=[N+](\[O-])N5CCOCC5)c([N+](=O)[O-])cc4[N+](=O)[O-])c3)=NN2C(C)=O)cc1OC` (centres undefined), with 75.7%.

Another data set has as its system MDA-MB-231. Nature of the data set: Antiproliferative activity against human MDA-MB-231 cells after 48 hrs by MTT assay relative to control. Type of data set: functional, cell-based. The note with it: MDA-MB-231, 48 h.
`COc1ccc(C2CC(c3cccc(Oc4cc(O/N=[N+](\[O-])N5CCOCC5)c([N+](=O)[O-])cc4[N+](=O)[O-])c3)=NN2C(C)=O)cc1OC` (centres undefined) showed an IC50 of 0.66 µM.
Still for that read-out and setting: the value for `CCCCOc1ccc(C2CC(c3cccc(Oc4cc(O/N=[N+](\[O-])N5CCOCC5)c([N+](=O)[O-])cc4[N+](=O)[O-])c3)=NN2C(C)=O)cc1OC` (centres undefined) was 4.4 µM.

A further data set concerns HCT-116. Nature of the data set: Antiproliferative activity against human HCT116 cells after 48 hrs by MTT assay relative to control. The note with it: HCT-116, 48 h. The class given is functional, cell-based.
With `COc1ccc(C2CC(c3cccc(Oc4cc(O/N=[N+](\[O-])N5CCOCC5)c([N+](=O)[O-])cc4[N+](=O)[O-])c3)=NN2C(C)=O)cc1OC` (centres undefined), it took 1.27 µM to reach half-maximal inhibition (IC50).
`CCCCOc1ccc(C2CC(c3cccc(Oc4cc(O/N=[N+](\[O-])N5CCOCC5)c([N+](=O)[O-])cc4[N+](=O)[O-])c3)=NN2C(C)=O)cc1OC` (centres undefined): the half-inhibitory concentration (IC50) was 1.86 µM.

Another data set concerns A549. As to the kind of experiment: Antiproliferative activity against human A549 cells after 48 hrs by MTT assay relative to control. The note with it: A549, 48 h. The class given is functional, cell-based.
Turning to `COc1ccc(C2CC(c3cccc(Oc4cc(O/N=[N+](\[O-])N5CCOCC5)c([N+](=O)[O-])cc4[N+](=O)[O-])c3)=NN2C(C)=O)cc1OC` (centres undefined), the 50% inhibitory concentration (IC50) was determined as 1.54 µM.
Still for that read-out and setting: then `CCCCOc1ccc(C2CC(c3cccc(Oc4cc(O/N=[N+](\[O-])N5CCOCC5)c([N+](=O)[O-])cc4[N+](=O)[O-])c3)=NN2C(C)=O)cc1OC` (centres undefined), with 1.46 µM.

In another data set the test system is U2OS. As to the kind of experiment: Antiproliferative activity against human U2OS cells after 48 hrs by MTT assay relative to control.
Conditions: not given
The class given is functional, cell-based.
On to `COc1ccc(C2CC(c3cccc(Oc4cc(O/N=[N+](\[O-])N5CCOCC5)c([N+](=O)[O-])cc4[N+](=O)[O-])c3)=NN2C(C)=O)cc1OC` (centres undefined), for which 2.46 µM corresponded to half-maximal inhibition (IC50).
Still for that read-out and setting: the value for `CCCCOc1ccc(C2CC(c3cccc(Oc4cc(O/N=[N+](\[O-])N5CCOCC5)c([N+](=O)[O-])cc4[N+](=O)[O-])c3)=NN2C(C)=O)cc1OC` (centres undefined) was 2.19 µM.

A further data set concerns MCF-10A. As to the kind of experiment: Antiproliferative activity against human MCF10A cells after 48 hrs by MTT assay relative to control.
Conditions: not given
Type of data set: cell-based.
In turn, `COc1ccc(C2CC(c3cccc(Oc4cc(O/N=[N+](\[O-])N5CCOCC5)c([N+](=O)[O-])cc4[N+](=O)[O-])c3)=NN2C(C)=O)cc1OC` (centres undefined) showed a half-maximal inhibitory concentration (IC50) of 10.1 µM.
Still for that read-out and setting: the value for `CCCCOc1ccc(C2CC(c3cccc(Oc4cc(O/N=[N+](\[O-])N5CCOCC5)c([N+](=O)[O-])cc4[N+](=O)[O-])c3)=NN2C(C)=O)cc1OC` (centres undefined) was 15.2 µM.

Test system in another data set: not listed separately
Nature of the data set: Selectivity ratio of IC50 for human MCF10A cells to IC50 for human MDA-MB-231 cells. Type of data set: toxicity. The note with it: MCF10A cells versus MDA-MB-231 cells, read-out: Ratio IC50.
Take `COc1ccc(C2CC(c3cccc(Oc4cc(O/N=[N+](\[O-])N5CCOCC5)c([N+](=O)[O-])cc4[N+](=O)[O-])c3)=NN2C(C)=O)cc1OC` (centres undefined): the selectivity ratio came out at 15.3.
On the same count and under the same terms, then `CCCCOc1ccc(C2CC(c3cccc(Oc4cc(O/N=[N+](\[O-])N5CCOCC5)c([N+](=O)[O-])cc4[N+](=O)[O-])c3)=NN2C(C)=O)cc1OC` (centres undefined), with 3.4.

Test system in the next data set: not listed separately
Nature of the data set: Selectivity ratio of IC50 for human HCT116 cells to IC50 for human MDA-MB-231 cells. Type of data set: functional.
Conditions: not given
As to `COc1ccc(C2CC(c3cccc(Oc4cc(O/N=[N+](\[O-])N5CCOCC5)c([N+](=O)[O-])cc4[N+](=O)[O-])c3)=NN2C(C)=O)cc1OC` (centres undefined), the “Ratio IC50” value came to 1.9.
Still for that read-out and setting: the value for `CCCCOc1ccc(C2CC(c3cccc(Oc4cc(O/N=[N+](\[O-])N5CCOCC5)c([N+](=O)[O-])cc4[N+](=O)[O-])c3)=NN2C(C)=O)cc1OC` (centres undefined) was 0.4.

Test system in another data set: not listed separately
Nature of the data set: Selectivity ratio of IC50 for human A549 cells to IC50 for human MDA-MB-231 cells. Type of data set: functional.
Conditions: not given
On to `COc1ccc(C2CC(c3cccc(Oc4cc(O/N=[N+](\[O-])N5CCOCC5)c([N+](=O)[O-])cc4[N+](=O)[O-])c3)=NN2C(C)=O)cc1OC` (centres undefined), for which the “Ratio IC50” value turned out to be 2.3.
The same measure, in the same setting: the value for `CCCCOc1ccc(C2CC(c3cccc(Oc4cc(O/N=[N+](\[O-])N5CCOCC5)c([N+](=O)[O-])cc4[N+](=O)[O-])c3)=NN2C(C)=O)cc1OC` (centres undefined) was 0.3.

Test system in another data set: not listed separately
Nature of the data set: Selectivity ratio of IC50 for human U2OS cells to IC50 for human MDA-MB-231 cells. Type of data set: functional.
Conditions: not given
On to `COc1ccc(C2CC(c3cccc(Oc4cc(O/N=[N+](\[O-])N5CCOCC5)c([N+](=O)[O-])cc4[N+](=O)[O-])c3)=NN2C(C)=O)cc1OC` (centres undefined), for which the “Ratio IC50” value was found to be 3.7.
On the same count and under the same terms, the value for `CCCCOc1ccc(C2CC(c3cccc(Oc4cc(O/N=[N+](\[O-])N5CCOCC5)c([N+](=O)[O-])cc4[N+](=O)[O-])c3)=NN2C(C)=O)cc1OC` (centres undefined) was 0.5.

The next data set addresses T1, Glutathione S-transferase P (Homo sapiens, UniProt P09211). As to the kind of experiment: Prodrug activation in human HCT116 cells assessed as GST-Pi-mediated NO release at 5 uM by nitrate reductase assay.
Conditions: not given
Type of data set: cell-based.
Turning to `COc1ccc(C2CC(c3cccc(Oc4cc(O/N=[N+](\[O-])N5CCOCC5)c([N+](=O)[O-])cc4[N+](=O)[O-])c3)=NN2C(C)=O)cc1OC` (centres undefined), the Drug metabolism entry was “Dose-dependent effect”.
On the same count and under the same terms, the value for `CCCCOc1ccc(C2CC(c3cccc(Oc4cc(O/N=[N+](\[O-])N5CCOCC5)c([N+](=O)[O-])cc4[N+](=O)[O-])c3)=NN2C(C)=O)cc1OC` (centres undefined) was “Dose-dependent effect”.

For a further data set, the target named is T1, Glutathione S-transferase P. Nature of the data set: Prodrug activation in human HCT116 cells assessed as GST-Pi-mediated NO release at 5 uM after 24 hrs by nitrate reductase assay. Type of data set: cell-based.
Conditions: not given
For `COc1ccc(C2CC(c3cccc(Oc4cc(O/N=[N+](\[O-])N5CCOCC5)c([N+](=O)[O-])cc4[N+](=O)[O-])c3)=NN2C(C)=O)cc1OC` (centres undefined), the Drug metabolism result is recorded as “Metabolite_Detected”.
With `CCCCOc1ccc(C2CC(c3cccc(Oc4cc(O/N=[N+](\[O-])N5CCOCC5)c([N+](=O)[O-])cc4[N+](=O)[O-])c3)=NN2C(C)=O)cc1OC` (centres undefined), the Drug metabolism result was “Metabolite_Detected”.

For a further data set, the species on record is Homo sapiens. As to the kind of experiment: Inhibition of MDR in human MCF7/ADR cells assessed as potentiation of adriamycin-induced antiproliferative activity by measuring fold reduction in adriamycin IC50 at 10 uM after 48 hrs by MTT assay. The class given is cell-based.
Conditions: not given
Turning to `COc1ccc(C2CC(c3cccc(Oc4cc(O/N=[N+](\[O-])N5CCOCC5)c([N+](=O)[O-])cc4[N+](=O)[O-])c3)=NN2C(C)=O)cc1OC` (centres undefined), the fold change (FC) stood at 14.3.
With `CCCCOc1ccc(C2CC(c3cccc(Oc4cc(O/N=[N+](\[O-])N5CCOCC5)c([N+](=O)[O-])cc4[N+](=O)[O-])c3)=NN2C(C)=O)cc1OC` (centres undefined), the fold change (FC) was 63.

A further data set concerns the target T1, Glutathione S-transferase P. As to the kind of experiment: Prodrug activation in human HCT116 cells assessed as GST-Pi-mediated NO release at 5 uM after 24 hrs in presence of NO scavenger carboxy-PTIO by nitrate reductase assay. Type of data set: cell-based.
Conditions: not given
For `COc1ccc(C2CC(c3cccc(Oc4cc(O/N=[N+](\[O-])N5CCOCC5)c([N+](=O)[O-])cc4[N+](=O)[O-])c3)=NN2C(C)=O)cc1OC` (centres undefined), the Drug metabolism entry is on record as “Metabolite_Notdetected”.
Still for that read-out and setting: then `CCCCOc1ccc(C2CC(c3cccc(Oc4cc(O/N=[N+](\[O-])N5CCOCC5)c([N+](=O)[O-])cc4[N+](=O)[O-])c3)=NN2C(C)=O)cc1OC` (centres undefined), with “Metabolite_Notdetected”.

A further data set shares this target. As to the kind of experiment: Prodrug activation in human HCT116 cells assessed as GST-Pi-mediated NO release at 5 uM after 24 hrs in presence of GST-Pi inhibitor etacrynic acid by nitrate reductase assay. Type of data set: cell-based.
Conditions: not given
For `COc1ccc(C2CC(c3cccc(Oc4cc(O/N=[N+](\[O-])N5CCOCC5)c([N+](=O)[O-])cc4[N+](=O)[O-])c3)=NN2C(C)=O)cc1OC` (centres undefined), the Drug metabolism result was “Metabolite_Notdetected”.
The same measure, in the same setting: the value for `CCCCOc1ccc(C2CC(c3cccc(Oc4cc(O/N=[N+](\[O-])N5CCOCC5)c([N+](=O)[O-])cc4[N+](=O)[O-])c3)=NN2C(C)=O)cc1OC` (centres undefined) was “Metabolite_Notdetected”.

Test system in another data set: not listed separately
Nature of the data set: Cytotoxicity against ADR-sensitive human MCF7 cells assessed as inhibition of cell viability at 10 uM after 48 hrs by MTT assay relative to control. Type of data set: cell-based. The conditions noted are these: read-out: INH.
On to `COc1ccc(C2CC(c3cccc(Oc4cc(O/N=[N+](\[O-])N5CCOCC5)c([N+](=O)[O-])cc4[N+](=O)[O-])c3)=NN2C(C)=O)cc1OC` (centres undefined), for which the cytotoxicity at 48 h, 10 µM was found to be 13%.
The same measure, in the same setting: then `CCCCOc1ccc(C2CC(c3cccc(Oc4cc(O/N=[N+](\[O-])N5CCOCC5)c([N+](=O)[O-])cc4[N+](=O)[O-])c3)=NN2C(C)=O)cc1OC` (centres undefined), with 23.6%.

Another data set concerns MCF7. Nature of the data set: Cytotoxicity against ADR-sensitive human MCF7 cells assessed as inhibition of cell viability after 48 hrs by MTT assay. Type of data set: cell-based. The conditions noted are these: MCF7, 48 h.
For `COc1ccc(C2CC(c3cccc(Oc4cc(O/N=[N+](\[O-])N5CCOCC5)c([N+](=O)[O-])cc4[N+](=O)[O-])c3)=NN2C(C)=O)cc1OC` (centres undefined), the IC50 stood at 22.7 µM.
Consider `CCCCOc1ccc(C2CC(c3cccc(Oc4cc(O/N=[N+](\[O-])N5CCOCC5)c([N+](=O)[O-])cc4[N+](=O)[O-])c3)=NN2C(C)=O)cc1OC` (centres undefined), for which the IC50 was found to be 19.2 µM.

A word on the inhibition: it is the share of the control response that was lost under treatment. What is called IC50 is the midpoint of a concentration-inhibition curve.
